{
  "source": "patent US9669001B2",
  "about": "“Antimicrobial composition” (CONVATEC TECHNOLOGIES INC., priority 2008, dated 2017)",
  "format_in_all_cases": "cell-based",
  "key": {"[1]": {"system": "P. aeruginosa biofilms", "experiment": "Minimum Biofilm Eradication Concentration (MBEC) method with cyan LED illumination", "conditions": "combinations in sterile water, cyan LED lamp; FIG. 4"}, "[2]": {"system": "P. aeruginosa biofilms", "experiment": "Photo-catalytic therapy, in vitro wound biofilm model (pork belly)"}, "[3]": {"system": "S. aureus biofilms", "experiment": "Photo-catalytic therapy, in vitro wound biofilm model (pork belly)", "conditions": "higher doses of RB and light, post-treatment rinse; FIG. 2"}},
  "data": [
    {"compound": "O=C(O)CN(CCN(CC(=O)O)CC(=O)O)CC(=O)O", "note": "[EDTA, ethylene diamine tetraacetic acid]", "values": [
      {"measurement": "effect on the action of RB and light against biofilms", "setting": "[1]", "result": "potentiates the action of RB and light in a concentration-dependent manner"}
    ]},
    {"compound": "O=C1OC2(c3cc(I)c(O)c(I)c3Oc3c2cc(I)c(O)c3I)c2c(Cl)c(Cl)c(Cl)c(Cl)c21", "note": "[Rose Bengal, 4,5,6,7-Tetrachloro-3′,6′-dihydroxy-2′,4′,5′,7′-tetriodo-3H-spiro[isobenzofuran-1,9′-xanthen]-3-one]", "values": [
      {"measurement": "biofilm removal (reduction in P. aeruginosa)", "setting": "[2]; 25 μM RB, PCT with post-treatment rinse step, FIG. 1", "result": 2, "unit": "log"},
      {"measurement": "P. aeruginosa biofilm bacteria cell killing on raising dose", "setting": "[2]; RB and light dose increased five-fold, no post-treatment rinse, FIG. 1 bars 2 & 4", "result": "significantly increased reduction"},
      {"measurement": "biofilm cell reductions", "setting": "[3]", "result": "over 3 log10"}
    ]},
    {"compound": "dialkyl dimethyl ammonium chloride [DDAC]", "values": [
      {"measurement": "effect on the action of RB and light against biofilms", "setting": "[1]", "result": "potentiates the action of RB and light in a concentration-dependent manner"}
    ]}
  ]
}
